Laboratory results from patent US20260226036A1, “THIOUREA ANTIO[…] NEURO[…]” (priority 2023, published 2026).

Assays:
SW mice = assay: Cocaine-conditioned locomotion, expression test; type: in vivo, mouse; conditions: Paired mice, cocaine 15 mg/kg 24 h earlier; 10 mg/kg prior to testing
Procedure: The goal of this pilot study was to determine if the novel small molecule was effective in preventing cocaine-conditioned motor activity of SW mice. […] Cocaine results in enhanced locomotor activity in mice. Mice that were previously injected with 15 mg/kg cocaine, either in their home cages (Unpaired) or in the novel test environment (Paired), were tested 24 h later.

mouse model of CPP = assay: Mouse model of CPP; type: in vivo
[1] = Neuroprotection MTT assay in SHSY5Y cells; type: cell-based, human; conditions: insult agent alone, HT22 or SHSY5Y cells, not told apart, read-out: cell proliferation (viable cells, MTT); for viability: 24 h
From the text: MTT assay was used for measuring viable cells at absorbance of 490 nm. […] (FIGS. 5C-5D).

IL-1β cytokine = IL-1β cytokine ELISA of SHSY-5Y supernatants; type: cell-based, human; conditions: cocaine 1.5 mM or METH 3.5 mM alone; 24 h
Procedure: Supernatants were collected and the IL-1β cytokine concentration was assessed using ELISA kit and following manufacturer instruction (RayBiotech). […] N=3, p<0.05; p<0.01, One-way ANOVA, GraphPad Prism.

methionine synthase (MS) = assay: Intracellular methionine synthase ELISA of SH-SY5Y cell lysate; type: cell-based, human; conditions: cocaine 1.5 mM alone; 24 hours; FIG. 6B
Procedure: Cell lysates were collected and quantified with Pierce™ BCA Protein Assay. Level of intracellular methionine synthase (MS) were assessed using ELISA of the cell lysate.

catalase (CAT) = assay: Catalase ELISA in SH-SY5Y cells; type: cell-based, human; conditions: cocaine 1.5 mM alone; 24 hours
Procedure: Cell lysates were collected and quantified with Pierce™ BCA Protein Assay. Level of intracellular SOD, catalase, glutathione peroxidase and total antioxidant concentration were assessed using ELISA kits.

CNC(=S)NC [DMTU, dimethyl thiourea]
expression of increased (cocaine-conditioned) locomotor activity (SW mice): effective
bioactivity in the mouse model of CPP (mouse model of CPP; 5 mg/kg): potent bioactivity
bioactivity in the mouse model of CPP (mouse model of CPP; 10 mg/kg): potent bioactivity

CC(C)(C)OO [TBHP, t-butyl hydrogen peroxide]
viability at 24 h [1]: ~50%

CN[C@@H](C)Cc1ccccc1 [METH, methamphetamine]
viability [1]: ~50%
IL-1β (IL-1β cytokine): trend in increase

COC(=O)[C@H]1[C@@H](OC(=O)c2ccccc2)C[C@@H]2CC[C@H]1N2C [cocaine]
viability [1]: ~50%
effect on MS (methionine synthase (MS)): no significant effect
CAT activity (catalase (CAT)): no significant effect
